In patent US7709645B2, “Pyrrolo-pyridine kinase modulators” (SGX Pharmaceuticals, Inc., priority 2004, dated 2010):

What follows are molecules tested against T1, T315I mutant form of BCR-ABL in Ba/F3 cells (Homo sapiens, UniProt P00519, T315I) (assay: Abl_T315I p-ELISA Cellular Assay (BCR-ABL phospho-ELISA)). Details: 60-120 minutes incubation.
T1 construct: expressed in transfected cells; host or cells: Ba/F3 cells; the other entry of the earlier key: BCR (P11274, Breakpoint cluster region protein)
T1 sequence (P00519 242-493 T315I limits assumed): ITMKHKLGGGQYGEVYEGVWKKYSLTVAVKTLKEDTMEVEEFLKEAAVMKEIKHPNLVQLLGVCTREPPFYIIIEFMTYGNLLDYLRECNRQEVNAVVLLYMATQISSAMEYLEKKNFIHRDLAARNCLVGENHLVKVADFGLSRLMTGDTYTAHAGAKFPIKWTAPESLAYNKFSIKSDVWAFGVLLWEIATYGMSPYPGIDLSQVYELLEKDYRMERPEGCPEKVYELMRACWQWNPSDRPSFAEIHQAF
Format: cell-based
Procedure: Cells (Ba/F3 cells transfected with WT BCR-ABL, other kinases, or T315I, Y253F, M351T, E255K, or other mutant forms of BCR-ABL) were grown in the absence of IL-3 at least ½ week before the assay. The day before assay, the cells were fed with fresh media so that at the time of assay the cells were in log phase. Ba/F3 cells that had been grown in the absence of IL-3 for at least ½ week were resuspended in RPMI 1640 so that each well of a 96-well plate would contain approximately 200,000 cells. Cells were distributed in a 96-well plate containing serially diluted concentrations of test compounds. Cells were typically incubated with or without test compounds for 60-120 minutes at 5% CO2, 37° C. The incubation was performed with or without other additives such as 10% FCS or 50% human plasma. After incubation of compounds, lysis buffer was added and incubated for 10-15 minutes; the lysate was cleared by centrifugation.
To make the ELISA plate, commercially available Anti-ABL antibodies (e.g. (Ab-3, Calbiochem OP20) were prepared at a concentration of 0.125 μg/ml in coating buffer (0.1M Na-carbonate, pH 9.5), and plated at 10 ml per plate (12.5 μl 100 μg/ml Ab/10 ml). In a high binding multi-well plate, 100 μl Ab in coating buffer were added to each well, and each plate was covered with a plate seal and incubated overnight at 4° C.
Excess antibody was removed and the ELISA plate was washed 3-4 times with 200 μl of wash buffer (0.05% Tween in PBS, pH 7.4). 150 μl of lysate (see above) were transferred to the ELISA plate. Plates were sealed and incubated 2 hours at room temperature. The detection antibody (e.g. HRP conjugated anti-pTyr or unconjugated α-p-Y 4G10, Upstate) was prepared in assay diluent. The antibody was diluted 1:1000 (stock=2 μg/μl, 200 μg in 100 μl; f.c.=2 μg/ml) in assay diluent and 10 ml of diluted antibody per plate were added. The lysate was removed from the ELISA plates, and wells were washed four times with 200 μl of wash buffer per well. 100 μl of detection antibody was added to each well; the plate was covered, and incubated 1 hr at room temperature (21° C.). Excess detection antibody was removed from the ELISA plates, and the wells were washed four times with 200 μl of wash buffer per well.
If necessary, (i.e. for unconjugated anti-pTyr antibody) secondary antibody (goat anti-rabbit HRP) was diluted 1:3000 in assay diluent (3.33 μl per 10 ml diluent) and added at 10 ml of diluted antibody per plate. Excess secondary antibody was removed from the ELISA plate, and the plate was washed four times with 200 μl per well of wash buffer.
Substrate Reagent A and Substrate Reagent B (Pierce Cat#37070 SuperSignal ELISA Pico Chemiluminescent Substrate) were added immediately before use (10 ml resultant solution per plate). 100 μl substrate were added per well, mixed for 1 minute, and chemiluminescent signal was measured with a luminometer.
In the case of `O=C(c1cncc(-c2cnc3[nH]cc(-c4ccc5cc[nH]c5c4)c3c2)c1)N1CCOCC1` [AE14], the IC50 is reported as < 100 nM.
In the case of `COc1ccccc1-c1c[nH]c2ncc(-c3ccc(O)c(CN4CCCN(C)CC4)c3)cc12` [AE41], the IC50 is reported as < 100 nM.
For `CNC(=O)c1cncc(-c2cnc3[nH]cc(-c4ccccc4OC)c3c2)c1` [AE1], the IC50 was < 100 nM.
In the case of `COc1ccccc1-c1c[nH]c2ncc(-c3cccc(C(=N)N4CCCCC4)c3)cc12` [AE42], the IC50 is reported as < 100 nM.
In the case of `COc1ccccc1-c1c[nH]c2ncc(-c3cccc(S(C)(=O)=O)c3)cc12` [AE13], the IC50 is reported as 100 to 1000 nM.
In the case of `N#Cc1cc(-c2cnc3[nH]cc(-c4ccc5[nH]ccc5c4)c3c2)ccc1O` [AE20], the IC50 is reported as < 100 nM.
With `COc1cc(-c2cnc3[nH]cc(-c4ccccc4OC)c3c2)ccc1O` [AE64] the IC50 was < 100 nM.
`Oc1cccc(-c2cnc3[nH]cc(-c4ccc(O)c(F)c4)c3c2)c1` [AE48] was tested, and the IC50 was 100 to 1000 nM.
Work on `c1cc2cc(-c3c[nH]c4ncc(-c5ccc6[nH]cnc6c5)cc34)ccc2[nH]1` [AE22] yielded an IC50 of 100 to 1000 nM.
Molecule `COc1ccccc1-c1c[nH]c2ncc(-c3ccc(S(N)(=O)=O)s3)cc12` [AE11] has an IC50 of 100 to 1000 nM.
`Oc1cccc(-c2cnc3[nH]cc(-c4ccn[nH]4)c3c2)c1` [AE49] showed an IC50 of 100 to 1000 nM.
With `COc1ccccc1-c1c[nH]c2ncc(-c3cc[nH]c(=O)c3)cc12` [AE9] the IC50 was 100 to 1000 nM.
For `Nc1nc(-c2c[nH]c3ncc(-c4ccc5[nH]ccc5c4)cc23)cs1` [AE55], the IC50 was < 100 nM.
With `COc1cc(-c2cnc3[nH]cc(-c4ccc(O)cc4)c3c2)ccc1O` [AE58] the IC50 was < 100 nM.
`CNC(=O)c1cc(-c2cnc3[nH]cc(-c4ccccc4OC)c3c2)cs1` [AE2] gave an IC50 of 100 to 1000 nM.
With `COc1ccccc1-c1c[nH]c2ncc(-c3csc(C(=O)N(C)C)c3)cc12` [AE3] the IC50 was < 100 nM.
